This is an account of results in publication PMC9115709, “TIMP‐1‐expressing breast tumor spheroids for the evaluation of drug penetration and efficacy” (Bioengineering & Translational Medicine, 2021).

Like-named read-outs stand apart in the source and are kept apart here.

The subject of data set [1] is MDA-MB-231 monocellular spheroids. Kind of data set: Drug efficacy in MDA-MB-231 monocellular spheroids. Format: cell-based, human. To be noted: drug at IC50 of MDA-MB-231 monolayer cells, 2 days. The method, then: (§1) To form 3D multicellular tumor spheroids, cells was trypsinized and suspended in the growth media. Stromal cells and breast cancer cells were plated with a density of 5 × 10^3 cells /25 μL into 96‐well plate precoated with poly‐HEMA, respectively, resulting in 1 × 10^4 cells exist per each well. After seeding, the plate was centrifuged for 2 min at 1000 rpm to collect the cells in the center of the well. Fifty microliters of 10% Matrigel® Basement Membrane Matrix (Corning, NY, USA) solution diluted in media was gently added into the plate on ice to prevent matrigel from gelation. Monocellular spheroids were generated by a single culture of stromal cells or breast cancer cells. Cells were seeded with a density of 1 × 10^4 cells per well with 50 μL of 10% matrigel on a poly‐HEMA‐coated plate. Then, the plate with cells and matrigel was centrifuged at 1000 rpm for 2 min, and incubated for 48 h at 37°C with 5% CO2.

Data set [2] concerns Multicellular spheroids with hASC and MDA-MB-231. Nature of the data set: Permeability value (PV) in the 3D tumor model. To be noted: PV = EffA:M - 1/2(EffASC + EffMDA), Equation (4).
Procedure: Therefore, we defined the permeability value (PV) of each drug as the difference in efficacy in multicellular and monocellular spheroids, as determined by Equation (4).
After treating the drug with spheroids for 2 days, the efficacy of the drug was evaluated by CellTiter‐Glo® 3D Cell Viability Assay (Promega). […] (4) PV=EffA:M−1/2EffASC+EffMDA.
Data set [3] has as its system hASC monocellular spheroids. Kind of data set: Drug efficacy in hASC monocellular spheroids. It is filed as cell-based, human. To be noted: drug at IC50 of MDA-MB-231 monolayer cells, 2 days. The procedure:
as §1

Another data set relates to MDA-MB-231 cells. Kind of data set: IC50 in MDA-MB-231 monolayer cells. Format: cell-based, human. As to conditions: Homo sapiens.
In data set [4] the test system is hBMSC-co-cultured spheroids (B:M). Kind of data set: Drug penetration (intrinsic fluorescence) in hBMSC-co-cultured tumor spheroids. It is filed as cell-based, human. As to conditions: 10 μM, 48 h, fluorescence microscopy. The procedure: (§2) We next tested whether ECM deposition on the surface of spheroids would affect the penetration of anticancer drugs and their efficacy. Three types of 3D multicellular tumor spheroids were formed and treated with 10 μM doxorubicin, epirubicin, or topotecan, which are chemotherapeutic agents for various tumors, including breast cancer, for an additional 48 h.
as §1
(§3) Spheroids were transferred to an opaque‐walled multiwall plate and analyzed by ATP‐based cell viability assays using Real Time‐Glo™ MT Cell Viability Assay (Promega, Madison, WI, USA) according to the manufacturer's protocol. […] Necrotic cells of spheroids were analyzed in Real Time‐Glo™ Annexin V Necrosis Assay (Promega) following the manufacturer's instructions. Luminescence was measured using a Glomax discovery multi Microplate Reader (Glomax discovery, Promega) with an integration time of 0.25–1.0 s per well.

Data set [5] concerns hASC-co-cultured spheroids (A:M). Kind of data set: Drug penetration (intrinsic fluorescence) in hASC-co-cultured tumor spheroids. Format: cell-based, human. To be noted: for Amount of drug inside the spheroids compared to other spheroids: 10 μM, 48 h, fluorescence microscopy, vs hBMSC- or hDF-co-cultured spheroids; for Amount of drug penetrating the spheroids, TIMP-1 silencing vs control siRNA: hASCs transfected with siTIMP-1, 48 h treatment. The method, then: as §2, §1, §3

Data set [6] relates to hDF-co-cultured spheroids (F:M). Kind of data set: Drug penetration (intrinsic fluorescence) in hDF-co-cultured tumor spheroids. It is filed as cell-based, human. To be noted: 10 μM, 48 h, fluorescence microscopy. The method, then: as §2, §1, §3
Data set [7] deals with 3D multicellular tumor spheroids. Nature of the data set: Necrosis in tumor spheroids, Real Time-Glo Annexin V Necrosis Assay. Format: cell-based, human. To be noted: A:M spheroids with control siRNA or siTIMP-1 hASCs.
Data set [8] deals with hASC-co-cultured spheroids (A:M). Nature of the data set: Drug efficacy in multicellular tumor spheroids, Real Time-Glo MT Cell Viability Assay. Format: cell-based, human. As to conditions: hASCs transfected with siTIMP-1, 48 h treatment. The procedure: as §3
Setting [9] is: MDA-MB-231 monolayer cells, read-out: MDA-MB-231 IC50.

Usually IC50 stands for the concentration needed to halve the response being measured. On to `CN(C)c1nc(N(C)C)nc(N(C)C)n1` [Altretamine], for which, in data set [1], the “MDA spheroid Efficacy (EffMDA, %)” value was determined as 36.883%. For the same compound, in data set [2], the “Experiment's PV #1” value is 0.025, the “Experiment's PV #2” value amounted to 0.062 and the “Experiment's PV #3” value is -0.012. In addition, the “hASC spheroid Efficacy (EffASC, %)” value in data set [3] is on record as 41.038%. Besides, the IC50 in the data set with MDA-MB-231 cells (setting [9]) was 64.5 µM.

As for `COC(=O)[C@]12CCC(C)(C)C[C@H]1[C@H]1C(=O)C=C3[C@@]4(C)C=C(C#N)C(=O)C(C)(C)[C@@H]4CC[C@@]3(C)[C@]1(C)CC2` [Bardoxolone-methyl], the “MDA spheroid Efficacy (EffMDA, %)” value in [1] is recorded as -35.997%. Further, in [3], the “hASC spheroid Efficacy (EffASC, %)” value is given as 38.156%. In addition, in the data set on MDA-MB-231 cells (setting [9]), the IC50 is 2.16 µM.

Turning to `CCCCCOC(=O)Nc1nc(=O)n([C@@H]2O[C@H](C)[C@@H](O)[C@H]2O)cc1F` [Capecitabine], the “MDA spheroid Efficacy (EffMDA, %)” value in [1] was determined as 99.873%. Also, in data set [2], the “Experiment's PV #1” value worked out at 0.000, the “Experiment's PV #2” value was determined as 0.001 and the “Experiment's PV #3” value is listed as 0.000. Further, the “hASC spheroid Efficacy (EffASC, %)” value in [3] is given as 99.895%. Moreover, the IC50 in the data set with MDA-MB-231 cells (setting [9]) was found to be 95 µM.

Take `COc1cccc2c1C(=O)c1c(O)c3c(c(O)c1C2=O)C[C@@](O)(C(=O)CO)C[C@@H]3O[C@H]1C[C@H](N)[C@H](O)[C@H](C)O1` [Doxorubicin, doxorubicin]: the “Distribution of drug inside the spheroids” value (“Distribution” below) in [4] was “distributed throughout”. In [5], the “Amount of drug inside the spheroids compared to other spheroids” value is “significant reduction” and the “Amount of drug penetrating the spheroids, TIMP-1 silencing vs control siRNA” value was “significantly increased”. Further, in data set [6], the “Distribution” value is given as “distributed throughout”. The “Necrotic cells after drug treatment” value in [7] is on record as “Few necrotic cells”. In addition, the “Drug efficacy, TIMP-1-silenced hASCs vs control” value in data set [8] is “significantly increased”.

`COc1cc([C@@H]2c3cc4c(cc3[C@@H](O[C@@H]3O[C@@H]5CO[C@@H](C)O[C@H]5[C@H](O)[C@H]3O)[C@H]3COC(=O)[C@H]23)OCO4)cc(OC)c1O` [Etoposide]: the “MDA spheroid Efficacy (EffMDA, %)” value in data set [1] is listed as 64.897%. Moreover, in [2], the “Experiment's PV #1” value is given as 0.029, the “Experiment's PV #2” value amounted to 0.043 and the “Experiment's PV #3” value turned out to be 0.016. In addition, the “hASC spheroid Efficacy (EffASC, %)” value in data set [3] turned out to be 73.263%. Also, the IC50 in the data set with MDA-MB-231 cells (setting [9]) was determined as 32.6 µM.

With `CC#C[C@]1(O)CC[C@H]2[C@@H]3CCC4=CC(=O)CCC4=C3[C@@H](c3ccc(N(C)C)cc3)C[C@@]21C` [Mifepristone], the “MDA spheroid Efficacy (EffMDA, %)” value in data set [1] stood at 46.672%. In addition, in [3], the “hASC spheroid Efficacy (EffASC, %)” value is 91.524%. Further, in the data set on MDA-MB-231 cells (setting [9]), the IC50 is 15.4 µM.

For the compound `CO[C@@]12[C@H](COC(N)=O)C3=C(C(=O)C(C)=C(N)C3=O)N1C[C@@H]1N[C@@H]12` [Mitomycin-c], the “MDA spheroid Efficacy (EffMDA, %)” value in [1] is given as 53.401%. Besides, in data set [2], the “Experiment's PV #1” value is -0.071, the “Experiment's PV #2” value is -0.097 and the “Experiment's PV #3” value is on record as -0.045. The “hASC spheroid Efficacy (EffASC, %)” value in data set [3] was 64.309%. For the same compound, the IC50 in the data set on MDA-MB-231 cells (setting [9]) was found to be 17.5 µM.

As for `CC(=O)O[C@H]1C(=O)[C@@]2(C)[C@H]([C@H](OC(=O)c3ccccc3)[C@]3(O)C[C@H](OC(=O)[C@H](O)[C@@H](NC(=O)c4ccccc4)c4ccccc4)C(C)=C1C3(C)C)[C@]1(OC(C)=O)CO[C@@H]1C[C@@H]2O` [Paclitaxel], the “MDA spheroid Efficacy (EffMDA, %)” value in data set [1] is listed as 72.690%. Further, in data set [2], the “Experiment's PV #1” value was -0.047, the “Experiment's PV #2” value was -0.071 and the “Experiment's PV #3” value is on record as -0.023. Besides, the “hASC spheroid Efficacy (EffASC, %)” value in data set [3] was determined as 97.404%. Moreover, the IC50 with MDA-MB-231 cells (setting [9]) is 2.38 µM.

In the case of `C/C(=C\c1csc(C)n1)[C@@H]1C[C@@H]2O[C@]2(C)CCC[C@H](C)[C@H](O)[C@@H](C)C(=O)C(C)(C)[C@@H](O)CC(=O)O1` [Patupilone, Patupilone (epothilone-b)], in [1], the “MDA spheroid Efficacy (EffMDA, %)” value came out at 23.781%. For the same compound, in data set [2], the “Experiment's PV #1” value was -0.039, the “Experiment's PV #2” value is reported as -0.067 and the “Experiment's PV #3” value is -0.010. Moreover, the “hASC spheroid Efficacy (EffASC, %)” value in data set [3] was found to be 34.560%. Besides, the IC50 with MDA-MB-231 cells (setting [9]) was determined as 33.4 µM.

Take `CC[C@@]1(O)C(=O)OCc2c1cc1n(c2=O)Cc2cc3c([N+](=O)[O-])cccc3nc2-1` [Rubitecan]: the “MDA spheroid Efficacy (EffMDA, %)” value in [1] turned out to be 25.373%. The “hASC spheroid Efficacy (EffASC, %)” value in data set [3] is given as 17.266%. Further, in the data set with MDA-MB-231 cells (setting [9]), the IC50 was determined as 0.82 µM.

For the compound `CNCc1ccc(-c2[nH]c3cc(F)cc4c3c2CCNC4=O)cc1` [Rucaparib], in data set [1], the “MDA spheroid Efficacy (EffMDA, %)” value came to 92.185%. For the same compound, the “hASC spheroid Efficacy (EffASC, %)” value in [3] is 99.818%. The IC50 in the data set with MDA-MB-231 cells (setting [9]) was 72.3 µM.

In the case of `CCc1c2c(nc3ccc(O)cc13)-c1cc3c(c(=O)n1C2)COC(=O)[C@]3(O)CC` [SN38, 7-ethyl-10-hydroxycamptothecin], the “MDA spheroid Efficacy (EffMDA, %)” value in data set [1] was 58.491%. Also, in [2], the “Experiment's PV #1” value came out at 0.031, the “Experiment's PV #2” value is 0.035 and the “Experiment's PV #3” value is 0.027. Besides, in data set [3], the “hASC spheroid Efficacy (EffASC, %)” value came out at 60.449%. The IC50 in the data set on MDA-MB-231 cells (setting [9]) was determined as 1.87 µM.

With `Cn1ncnc1[C@H]1c2n[nH]c(=O)c3cc(F)cc(c23)N[C@@H]1c1ccc(F)cc1` [Talazoparib], the “MDA spheroid Efficacy (EffMDA, %)” value in data set [1] was determined as 75.508%. Moreover, in data set [2], the “Experiment's PV #1” value is 0.051, the “Experiment's PV #2” value is listed as 0.057 and the “Experiment's PV #3” value amounted to 0.046. The “hASC spheroid Efficacy (EffASC, %)” value in data set [3] is listed as 99.742%. In the data set with MDA-MB-231 cells (setting [9]), the IC50 is 87.4 µM.

Take `COc1ccc(N(C)c2nc(C)nc3ccccc23)cc1` [Verubulin]: in [1], the “MDA spheroid Efficacy (EffMDA, %)” value is on record as 5.173%. Besides, in data set [2], the “Experiment's PV #1” value amounted to 0.039, the “Experiment's PV #2” value came to 0.029 and the “Experiment's PV #3” value is 0.085. In addition, the “hASC spheroid Efficacy (EffASC, %)” value in data set [3] was 24.939%. Further, in the data set with MDA-MB-231 cells (MDA-MB-231, read-out: MDA-MB-231 IC50), the IC50 turned out to be 0.01 µM.

Take `CC[C@]1(O)C[C@@H]2CN(CCc3c([nH]c4ccccc34)[C@@](C(=O)OC)(c3cc4c(cc3OC)N(C)[C@H]3[C@@](O)(C(=O)OC)[C@H](OC(C)=O)[C@]5(CC)C=CCN6CC[C@]43[C@@H]65)C2)C1` [Vinblastine]: in data set [1], the “MDA spheroid Efficacy (EffMDA, %)” value was 9.274%. Besides, in data set [2], the “Experiment's PV #1” value is on record as -0.060, the “Experiment's PV #2” value is given as -0.020 and the “Experiment's PV #3” value is -0.100. Also, in [3], the “hASC spheroid Efficacy (EffASC, %)” value is recorded as 25.299%. Also, the IC50 in the data set on MDA-MB-231 cells (setting [9]) was found to be 1.83 µM.

For `CC[C@@]1(O)C(=O)OCc2c1cc1n(c2=O)Cc2cc3c(CN(C)C)c(O)ccc3nc2-1` [topotecan], the “Distribution” value in data set [4] and in data set [6] was “distributed throughout” each time. Further, in [5], the “Amount of drug inside the spheroids compared to other spheroids” value was “significant reduction”. In addition, the “Amount of drug penetrating the spheroids, TIMP-1 silencing vs control siRNA” value in [5] was “significantly increased”. Further, the “Necrotic cells after drug treatment” value in data set [7] is “Few necrotic cells”. Besides, in data set [8], the “Drug efficacy, TIMP-1-silenced hASCs vs control” value is “significantly increased”.
